Data reported in ChEMBL document CHEMBL1201862, “PubChem BioAssay data set” (2004).
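Where inhibition never reached the appropriate level, the endpoint shown equals the highest concentration tested. Otherwise, values were interpolated linearly from a five-concentration, 48-hour dose response in 96-well plates. GI50 = concentration required for 50% inhibition of growth.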 Calls of active or inactive are those of the source. No stated cut-off is given here; in the data, active = GI50 up to about 1.1 µM and inactive = higher.

Legend:
Assay in all cases: NCI tumour cell line growth inhibition, 48 h
[1] = tested on: OVCAR-5
[2] = tested on: CAKI-1
[3] = tested on: HL-60
[4] = tested on: LOX IMVI
[5] = tested on: HT-29
[6] = tested on: SK-OV-3
[7] = tested on: NCI-H522
[8] = tested on: CCRF-CEM
[9] = tested on: UO-31
[10] = tested on: HCT-116
[11] = tested on: RPMI-8226
[12] = tested on: RXF 393
[13] = tested on: SNB-75
[14] = tested on: UACC-62
[15] = tested on: M14
[16] = tested on: SNB-19
[17] = tested on: HCC 2998
[18] = tested on: EKVX
[19] = tested on: NCI-H23
[20] = tested on: SK-MEL-5

Row | SMILES | GI50 [1] | GI50 [2] | GI50 [3] | GI50 [4] | GI50 [5] | GI50 [6] | GI50 [7] | GI50 [8] | GI50 [9] | GI50 [10] | GI50 [11] | GI50 [12] | GI50 [13] | GI50 [14] | GI50 [15] | GI50 [16] | GI50 [17] | GI50 [18] | GI50 [19] | GI50 [20]
1 | O=C1OC2(OC2c2ccc(Cl)cc2)c2ccccc21 (centres undefined) | > 100 µM (inactive) | > 100 µM (inactive) | 34.3 µM (inactive) | 17.8 µM (inactive) | > 100 µM (inactive) | > 100 µM (inactive) | 31.9 µM (inactive) | 51.5 µM (inactive) | > 100 µM (inactive) | > 100 µM (inactive) | 89.1 µM (inactive) | 62.7 µM (inactive) | 48.1 µM (inactive) | > 100 µM (inactive) | > 100 µM (inactive) | 73.8 µM (inactive) | > 100 µM (inactive) | > 100 µM (inactive) |  | 
2 | O=c1oc2ccccc2n1P(=O)(n1c(=O)oc2ccccc21)n1c(=O)oc2ccccc21 | > 100 µM (inactive) | > 100 µM (inactive) | > 100 µM (inactive) | > 100 µM (inactive) | > 100 µM (inactive) | > 100 µM (inactive) | > 100 µM (inactive) | > 100 µM (inactive) | > 100 µM (inactive) | > 100 µM (inactive) |  | > 100 µM (inactive) | 90.2 µM (inactive) | > 100 µM (inactive) | > 100 µM (inactive) | > 100 µM (inactive) | > 100 µM (inactive) | 97.7 µM (inactive) | > 100 µM (inactive) | 
3 | O=C1C(Cl)N(c2ccccc2)C1c1c[nH]c2ccccc12 (centres undefined) | 46 µM (inactive) |  | > 100 µM (inactive) |  | > 100 µM (inactive) | > 100 µM (inactive) | > 100 µM (inactive) | > 100 µM (inactive) | 65.6 µM (inactive) | > 100 µM (inactive) | > 100 µM (inactive) | > 100 µM (inactive) | > 100 µM (inactive) | > 100 µM (inactive) | > 100 µM (inactive) | 48.9 µM (inactive) |  | > 100 µM (inactive) | > 100 µM (inactive) | > 100 µM (inactive)
4 | O=C(O)c1cc2sc(C(=O)O)cc2s1 | > 100 µM (inactive) | > 100 µM (inactive) | > 100 µM (inactive) | > 100 µM (inactive) | > 100 µM (inactive) | > 100 µM (inactive) | > 100 µM (inactive) | > 100 µM (inactive) | > 10 µM (inactive) | > 100 µM (inactive) | > 100 µM (inactive) | > 100 µM (inactive) | > 100 µM (inactive) | > 100 µM (inactive) | > 100 µM (inactive) | > 100 µM (inactive) |  |  | > 100 µM (inactive) | > 100 µM (inactive)
5 | NC1(C(=O)O)CCCC1 [CYCLOLEUCINE] | > 625 µM (inactive) | > 625 µM (inactive) | > 625 µM (inactive) | > 625 µM (inactive) | > 625 µM (inactive) | > 625 µM (inactive) | > 625 µM (inactive) | > 625 µM (inactive) | > 625 µM (inactive) | > 625 µM (inactive) | > 625 µM (inactive) | > 625 µM (inactive) | > 625 µM (inactive) | > 625 µM (inactive) |  | > 99.1 µM (inactive) | > 625 µM (inactive) | > 578 µM (inactive) | > 625 µM (inactive) | > 625 µM (inactive)
6 | Nc1n[nH]c2nc3ccccc3nc12 [QUINOXALINE1] | 38 µM (inactive) | 31.9 µM (inactive) | 34.8 µM (inactive) | 47 µM (inactive) | 59.6 µM (inactive) | > 100 µM (inactive) | 44.1 µM (inactive) | 34.4 µM (inactive) | 39.6 µM (inactive) | 31 µM (inactive) | 36.1 µM (inactive) | 27.9 µM (inactive) | 37.1 µM (inactive) | 45 µM (inactive) |  | > 100 µM (inactive) | > 100 µM (inactive) | 73.3 µM (inactive) | > 100 µM (inactive) | > 100 µM (inactive)
7 | O=[N+]([O-])C(=C/c1ccccc1)/C(=C\c1ccccc1)[N+](=O)[O-] | 22 µM (inactive) | 15.7 µM (inactive) |  | 14.7 µM (inactive) | 17.6 µM (inactive) | 20 µM (inactive) |  | 1.71 µM (inactive) | 17.5 µM (inactive) | 17.8 µM (inactive) | 10.3 µM (inactive) | 10.2 µM (inactive) | 18.4 µM (inactive) | 16.6 µM (inactive) | 19.1 µM (inactive) | 18.2 µM (inactive) | 21.6 µM (inactive) | 17.3 µM (inactive) | 15.2 µM (inactive) | 15.9 µM (inactive)
8 | COc1nc2ccc(CNc3ccc(C(=O)NC(CCC(=O)O)C(=O)O)cc3)cc2nc1OC (centres undefined) | > 100 µM (inactive) |  | > 100 µM (inactive) | 32.8 µM (inactive) | > 100 µM (inactive) | > 100 µM (inactive) | > 100 µM (inactive) | 23.2 µM (inactive) | > 100 µM (inactive) |  | > 100 µM (inactive) | > 100 µM (inactive) | > 100 µM (inactive) | > 100 µM (inactive) | > 100 µM (inactive) | > 100 µM (inactive) | > 100 µM (inactive) | > 100 µM (inactive) | > 100 µM (inactive) | > 100 µM (inactive)
9 | C/C(=C1/N=C(c2cc([N+](=O)[O-])ccc2Cl)N(c2ccc(Br)cc2)C1=O)c1cc2ccccc2oc1=O | > 100 µM (inactive) | 12.9 µM (inactive) | 23.7 µM (inactive) | 17.3 µM (inactive) | 42.1 µM (inactive) | 90.4 µM (inactive) | 10.6 µM (inactive) | 16.5 µM (inactive) | 23.7 µM (inactive) | 24.5 µM (inactive) | 26.6 µM (inactive) |  | 33.8 µM (inactive) | 18.2 µM (inactive) | 25.9 µM (inactive) | 55.8 µM (inactive) | 24 µM (inactive) | > 100 µM (inactive) | 38.3 µM (inactive) | 23.4 µM (inactive)
10 | CC(=O)OCC1OC(n2c(-c3ccc(C)cc3)cc(-c3ccco3)c(C#N)c2=S)C(OC(C)=O)C(OC(C)=O)C1OC(C)=O (centres undefined) | > 100 µM (inactive) | > 100 µM (inactive) | > 100 µM (inactive) | > 100 µM (inactive) | > 100 µM (inactive) | 29.9 µM (inactive) | 50.4 µM (inactive) | > 100 µM (inactive) | 28.9 µM (inactive) | 29 µM (inactive) | > 100 µM (inactive) | 40.6 µM (inactive) | 25.1 µM (inactive) | 18.2 µM (inactive) | 83.9 µM (inactive) | 32.5 µM (inactive) | > 100 µM (inactive) | > 100 µM (inactive) | 48 µM (inactive) | 65.2 µM (inactive)
11 | COc1cc2c(cc1OC)-c1cc3ccccc3c(=O)n1CC2 | 31.8 µM (inactive) | 27.2 µM (inactive) |  | 10.3 µM (inactive) | 24.8 µM (inactive) | 13.3 µM (inactive) | 16.1 µM (inactive) | 25 µM (inactive) | 19.9 µM (inactive) | 10.4 µM (inactive) | 13.7 µM (inactive) | 2.33 µM (inactive) | 11.9 µM (inactive) | 18.2 µM (inactive) | 31.2 µM (inactive) | 43.7 µM (inactive) | 16.6 µM (inactive) | 24.6 µM (inactive) | 37.5 µM (inactive) | 7.26 µM (inactive)
12 | C=CCP(=O)(CC=C)C(Cl)Cl | > 100 µM (inactive) | > 100 µM (inactive) | > 100 µM (inactive) | > 100 µM (inactive) | > 100 µM (inactive) | > 100 µM (inactive) | > 100 µM (inactive) | > 100 µM (inactive) | > 100 µM (inactive) | > 100 µM (inactive) | > 100 µM (inactive) |  | > 100 µM (inactive) |  | > 100 µM (inactive) | > 100 µM (inactive) | > 100 µM (inactive) |  | > 100 µM (inactive) | > 100 µM (inactive)
13 | COc1ccc2c(c1)CC1Cc3ccccc3CCN1C2 (centres undefined) | 22.6 µM (inactive) | 20.3 µM (inactive) | 53.1 µM (inactive) | 20 µM (inactive) | 32.4 µM (inactive) | 20.5 µM (inactive) | 15.3 µM (inactive) | 98.6 µM (inactive) | 37.2 µM (inactive) | 40.1 µM (inactive) | 39.5 µM (inactive) | 25.7 µM (inactive) | > 100 µM (inactive) | 55.1 µM (inactive) | 23.6 µM (inactive) | 55 µM (inactive) | 35.2 µM (inactive) | 59 µM (inactive) | 70.3 µM (inactive) | 20.2 µM (inactive)
14 | C=C(C(=O)C(=O)Oc1ccc(Cl)cc1)C(=O)c1ccc(C)cc1 | > 100 µM (inactive) | 94.4 µM (inactive) | 17.9 µM (inactive) | < 0.01 µM (active) | 31.1 µM (inactive) | > 100 µM (inactive) | 17.9 µM (inactive) | 22.8 µM (inactive) | 40.2 µM (inactive) | 16.7 µM (inactive) | 31.9 µM (inactive) | 26.4 µM (inactive) | 39.2 µM (inactive) | 41.4 µM (inactive) | 28.3 µM (inactive) | 53.2 µM (inactive) | 26.5 µM (inactive) | > 100 µM (inactive) | > 100 µM (inactive) | 67.6 µM (inactive)
15 | Cc1c2cnccc2c(C)c2c1c1ccccc1n2CCCCCCNCc1ccccc1 | 1.75 µM (inactive) | 1.89 µM (inactive) | 1.03 µM (active) | 1.07 µM (active) | 1.36 µM (inactive) | 3.8 µM (inactive) | 2.15 µM (inactive) | 0.489 µM (active) | 1.99 µM (inactive) | 0.649 µM (active) | 0.766 µM (active) | 2.04 µM (inactive) | 2.05 µM (inactive) | 2.32 µM (inactive) |  | 1.88 µM (inactive) | 1.88 µM (inactive) | 2.11 µM (inactive) | 1.91 µM (inactive) | 2.36 µM (inactive)
